Numbers after ± are expanded uncertainties.
Experiments:
[1] = xn = mol fraction of the nth substance listed; conditions: 298.15 K, 101 kPa, Liquid, Vibrating tube method
[2] = excess molar enthalpy (molar enthalpy of mixing); xn = mol fraction of the nth substance listed; conditions: 298.15 K, 101 kPa, Liquid, Calvet calorimetry

BrCCCCCCBr [1,6-dibromohexane] + CCCCOC=O
Conditions | excess molar enthalpy [kcal/mol] | mass density [kg/m3]
[1], x2 = 0.0793 | – | 1558.23 ± 0.73
[1], x2 = 0.1555 | – | 1514.85 ± 0.69
[1], x2 = 0.2238 | – | 1474.51 ± 0.65
[1], x2 = 0.2952 | – | 1430.8 ± 0.61
[1], x2 = 0.3567 | – | 1391.77 ± 0.57
[1], x2 = 0.4201 | – | 1350.14 ± 0.53
[1], x2 = 0.4813 | – | 1308.59 ± 0.5
[1], x2 = 0.5983 | – | 1224.92 ± 0.42
[1], x2 = 0.6603 | – | 1178.22 ± 0.38
[1], x2 = 0.7628 | – | 1097.17 ± 0.32
[1], x2 = 0.8097 | – | 1058.36 ± 0.29
[1], x2 = 0.854 | – | 1020.74 ± 0.26
[1], x2 = 0.9078 | – | 973.55 ± 0.25
[2], x2 = 0.0858 | 0.0241 ± 0.000717 | –
[2], x2 = 0.1844 | 0.0413 ± 0.000956 | –
[2], x2 = 0.2879 | 0.0566 ± 0.0012 | –
[2], x2 = 0.3755 | 0.0655 ± 0.00143 | –
[2], x2 = 0.4521 | 0.0686 ± 0.00143 | –
[2], x2 = 0.5188 | 0.0674 ± 0.00143 | –
[2], x2 = 0.6009 | 0.0636 ± 0.00143 | –
[2], x2 = 0.6581 | 0.0583 ± 0.0012 | –
[2], x2 = 0.7307 | 0.0497 ± 0.0012 | –
[2], x2 = 0.8078 | 0.0375 ± 0.000956 | –
[2], x2 = 0.8827 | 0.0246 ± 0.000717 | –
[2], x2 = 0.9487 | 0.0134 ± 0.000478 | –

BrCCCCBr [1,4-dibromobutane] + CCCCOC(=O)CC
Conditions | excess molar enthalpy [kcal/mol] | mass density [kg/m3]
[1], x1 = 0.0993 | – | 1702.4 ± 0.89
[1], x1 = 0.1484 | – | 1647.38 ± 0.83
[1], x1 = 0.2006 | – | 1590.44 ± 0.77
[1], x1 = 0.2485 | – | 1539.57 ± 0.72
[1], x1 = 0.307 | – | 1478.88 ± 0.66
[1], x1 = 0.3593 | – | 1426.19 ± 0.61
[1], x1 = 0.4138 | – | 1372.46 ± 0.56
[1], x1 = 0.4767 | – | 1312.32 ± 0.5
[1], x1 = 0.5324 | – | 1260.38 ± 0.46
[1], x1 = 0.5968 | – | 1201.95 ± 0.41
[1], x1 = 0.6549 | – | 1150.66 ± 0.36
[1], x1 = 0.721 | – | 1093.83 ± 0.32
[1], x1 = 0.787 | – | 1038.79 ± 0.27
[1], x1 = 0.8544 | – | 984.01 ± 0.24
[1], x1 = 0.9302 | – | 924.33 ± 0.24
[2], x2 = 0.0509 | 0.00574 ± 0.000239 | –
[2], x2 = 0.1183 | 0.00621 ± 0.000239 | –
[2], x2 = 0.196 | 0.00287 ± 0.000239 | –
[2], x2 = 0.275 | -0.00239 ± 0.000239 | –
[2], x2 = 0.3518 | -0.00765 ± 0.000239 | –
[2], x2 = 0.4473 | -0.0131 ± 0.000478 | –
[2], x2 = 0.4843 | -0.0151 ± 0.000478 | –
[2], x2 = 0.5517 | -0.0163 ± 0.000478 | –
[2], x2 = 0.6323 | -0.017 ± 0.000478 | –
[2], x2 = 0.7319 | -0.016 ± 0.000478 | –
[2], x2 = 0.8302 | -0.0124 ± 0.000478 | –
[2], x2 = 0.9193 | -0.0086 ± 0.000239 | –

— the NIST ThermoML archive (doi:10.1016/j.jct.2009.05.006)
